Assay results taken from PMC8001472, “Novel Selective IDO1 Inhibitors with Isoxazolo[5,4-d]pyrimidin-4(5H)-one Scaffold” (Pharmaceuticals, 2021).

How the values were obtained:
[1] = test system: Hep G2 cell line; experiment: Cytotoxicity, MTS cell proliferation assay; assay type: cell-based; conditions: Hep G2 cells
Method: (§1) All active compounds were additionally evaluated on a cellular level, starting with the determination of cytotoxicity on Hep G2 cell line using the MTS assay (Figure 3), where inner salt of [3-(4,5-dimethylthiazol-2-yl)-5-(3-carboxymethoxyphenyl)-2-(4-sulfophenyl)-2H-tetrazolium is converted to formazan product, its quantity is directly proportional to the number of living cells. Since the majority of compounds were only partially soluble in a cell medium at concentrations above 100 μM, their effect on cell viability was measured at 50 μM, 10 μM, and 1 μM. […] Taken together, the results obtained from cellular tests reminded us of the necessity to consider the physicochemical properties of compounds even at the early stages of design.
Cytotoxicity of the compounds was determined on HepG2 cell line using the MTS cell proliferation assay (CellTiter 96 AQueous One Solution Cell Proliferation Assay, Promega, Madison, WI, USA). The cells were seeded in 96-well plates (3 × 10^4 cells/well) and maintained in Dulbecco’s Modified Eagle’s Medium, supplemented with 10% fetal bovine serum (both from Thermo Fisher Scientific, Waltham, MA, USA) and 100 µg/mL gentamicin (Sigma-Aldrich, St. Louis, MO, USA). Following overnight incubation in a humidified chamber at 37 °C and 5% CO2 cells were treated with the compounds of interest at final concentrations of 1 µM, 10 µM, 50 µM, 100 µM, 150 µM, and 200 µM. After 24h incubation under the same conditions, 100 µL of the medium from each well were collected and mixed with 10 µL of MTS solution. Following 3h incubation, the absorbance (λABS = 490 nm) was measured using a microplate reader (Synergy H4; BioTek Instruments, Inc., Winooski, VT, USA). The results are expressed as means of triplicates ± standard deviation of three independent experiments.

[2] = molecular target: IDO1 (Homo sapiens, UniProt P14902); experiment: Cell-based IDO1 inhibitory assay on IFN-γ treated HeLa cells; set-up: endogenous in cells; host or cells: HeLa cells treated with human IFN-γ
IDO1, sequence (P14902 whole entry): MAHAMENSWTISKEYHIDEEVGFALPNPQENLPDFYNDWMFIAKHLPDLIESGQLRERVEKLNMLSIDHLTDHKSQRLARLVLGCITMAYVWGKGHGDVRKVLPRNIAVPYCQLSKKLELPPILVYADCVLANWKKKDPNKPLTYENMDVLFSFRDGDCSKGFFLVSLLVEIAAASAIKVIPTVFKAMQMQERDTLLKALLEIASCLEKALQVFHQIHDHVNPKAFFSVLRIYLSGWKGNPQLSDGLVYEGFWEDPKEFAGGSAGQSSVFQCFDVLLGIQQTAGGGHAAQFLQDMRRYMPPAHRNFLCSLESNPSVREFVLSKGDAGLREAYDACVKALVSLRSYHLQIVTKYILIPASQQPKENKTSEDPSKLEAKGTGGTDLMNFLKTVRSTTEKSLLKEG
Method: as §1
HeLa cells were seeded in 96-well plates (2 × 10^4 cells/well) and maintained in Dulbecco’s modified Eagle’s medium, supplemented with 10% fetal bovine serum (both from Thermo Fisher Scientific, Waltham, MA, USA) and 100 µg/mL gentamicin (Sigma-Aldrich, St. Louis, MO, USA). Following overnight incubation in a humidified chamber at 37 °C and 5% CO2 cells were treated with human IFN-γ (50 ng/mL final concentration). […] The absorbance (λABS = 480 nm) of the yellow color derivate formed after 10 min was measured using a microplate reader (Synergy H4; BioTek Instruments, Inc., Winooski, VT, USA).

With O=C(Cn1cnc2onc(-c3ccc(F)cc3)c2c1=O)Nc1ccc(C(F)(F)F)cc1 [Compound 23] the cytotoxicity profile [1] was “satisfying cytotoxicity profile” and the “cell-based IDO1 inhibition” value [2] was “no activity was detected”.
